Experimental data published in PMC6355809, “Proteinaceous Nano container Encapsulate Polycyclic Aromatic Hydrocarbons” (Scientific Reports, 2019).

Legend:
[1] = molecular target: T1, RHCC-NT (Staphylothermus marinus, UniProt Q54436); assay: Time-scale binding assay (uptake of PAH by RHCC-NT, fluorescence); settings: for time to reach equilibrium: under the conditions of the pyrene time-scale study (10 °C), data not shown; for Py-value (ratio of fluorescence emission intensities of Band I/III): 2 µM pyrene, 70 µM RHCC
Description: To probe the uptake kinetics of low MW PAHs, we examined the fluorescence characteristics of pyrene in solvent in comparison to RHCC-NT bound pyrene (Fig. 4). As the bulkiest of the PAHs tested, it is expected that pyrene provides an upper bound on the equilibration time of these low MW PAHs. We took advantage of the major vibronic bands (I and III) of pyrene with defined peaks at ~373 and 384 nm[11],[12]. […] The ratio of the fluorescence emission intensities of Band I/III is defined as Py-value[13],[14] and can be employed to detect polarity in the vicinity of the probed microenvironment.
The time-scale assay was set-up by addition of pyrene to a 35-fold molar excess of RHCC in 20 mM sodium phosphate solution buffered at pH 7 and adjusted to 150 mM ionic strength. Both solutions were equilibrated to 10 °C prior to the assay. Data was collected on a Fluorolog-3 Horiba Jobin Yvon Spectrofluorometer (Edison, NJ). Excitation wavelength was set to 334 nm; emission was monitored at 384 nm; excitation and emission slits were set to 1 nm band pass resolution. Temperature was kept at 10 °C and controlled with a water bath throughout the experiment. Data was acquired every 1 minute for the first 25 minutes, following by 30 minute intervals until fluorescence signal plateaued and equilibrium achieved.

[2] = molecular target: T1, RHCC-NT; assay: Fluorescence binding assay (steady-state titration of PAH with RHCC-NT); settings: for ∆G, molar Gibbs free energy for the ligand binding: ∆G = RT ln (Kd); for Fluorescence intensity at 350 nm (λexc = 275 nm): 4 µM naphthalene; for binding to RHCC-NT / concentration dependent fluorescence changes: result in words
Experimental: Fluorescence assays were used to examine the binding of RHCC-NT to PAHs as they allow discrimination between PAHs in solution and those bound to the RHCC-NT, as well as the ability to monitor PAH uptake as a function of time (Fig. 2). […] In order to minimize contributions from tyrosine fluorescence, the fluorescence emission at 350 nm was used to determine the binding affinity of naphthalene to RHCC-NT (Table 1).
Initial binding screens were performed by titrating known amounts of a single PAH with varying amounts of RHCC-NT. All assays were performed in 20 mM sodium phosphate solution containing 1% ethanol buffered at pH 7 and adjusted to 150 mM ionic strength. All samples were prepared in triplicate to a final volume of 1 mL and were left to incubate overnight at 25 °C to ensure complete equilibration. PAH fluorescence was then measured as a function of RHCC-NT concentration. Steady-state fluorescence spectra were collected using Fluorolog-3 Horiba Jobin Yvon spectrofluorometer (Edison, NJ). Excitation wavelength was set to 275 nm for naphthalene, 300 nm for acenaphthene, 350 nm for anthracene, 334 nm for chrysene and pyrene, 290 nm for acenaphthylene and fluorene. Excitation and emission slits were set to 1 nm band pass resolution. All samples were measured at 20 °C in a 10 × 3 mm^2 quartz cuvette. The obtained fluorescence data was used to calculate the binding constant Kd assuming that each PAH binds to one of two equal bindings sites in the RHCC-NT, cavity 2 or 3. The fraction of PAH bound and the concentration of unbound RHCC-NT was determined based on the following equation:1 Fractionbound=y=F−F0/F∞−F0=Bmax[RHCCfree]/Kd+[RHCCfree] where F is the experimental fluorescence signal of each sample, F∞ is the fluorescence of the PAH at infinite protein concentration, F0 is the fluorescence of the free PAH in solution, Bmax is a constant and equal to 1. The y values thus obtained were plotted as a function of free RHCC concentrations. The plotted data were then fit to Equation (1) using Sigma Plot 13 (Point Richmond, CA), yielding the binding constant Kd for each PAH bound to RHCC-NT[27].

[3] = design: method as in PMID 26626387; settings: in kJ/mol; cited from earlier work
[4] = test system: RHCC-tetrabrachion; assay: GC-MS/MS uptake of PAHs; assay type: binding, Staphylothermus marinus; settings: result in words

Row | SMILES | time to reach equilibrium [1] | Kd [2] [µM] | ∆G, molar Gibbs free energy for the ligand binding [2] [kcal/mol] | ΔGsolv, measured solvation free energy [3] | uptake by RHCC-tetrabrachion [4] | binding to RHCC-NT / concentration dependent fluorescence changes [2] | also measured
1 | C1=Cc2cccc3cccc1c23 [Acenaphthylene, acenaphthylene] | ca. 1 min | 32 ± 7 | -6.09 | – | – | – | –
2 | c1ccc2ccccc2c1 [Naphthalene, naphthalene] | ca. 1 min | 17 ± 1.4 | -6.48 | −10.0 ± 2.5 | – | – | Fluorescence intensity at 350 nm (λexc = 275 nm) ([2]; [RHCC] 0 µM): 708292; Fluorescence intensity at 350 nm (λexc = 275 nm) ([2]; [RHCC] 0.12 µM): 709824; Fluorescence intensity at 350 nm (λexc = 275 nm) ([2]; [RHCC] 0.24 µM): 730572; Fluorescence intensity at 350 nm (λexc = 275 nm) ([2]; [RHCC] 0.48 µM): 733694; Fluorescence intensity at 350 nm (λexc = 275 nm) ([2]; [RHCC] 0.96 µM): 780644; Fluorescence intensity at 350 nm (λexc = 275 nm) ([2]; [RHCC] 1.9 µM): 906120; Fluorescence intensity at 350 nm (λexc = 275 nm) ([2]; [RHCC] 3.8 µM): 1003650; Fluorescence intensity at 350 nm (λexc = 275 nm) ([2]; [RHCC] 7.7 µM): 1177910; Fluorescence intensity at 350 nm (λexc = 275 nm) ([2]; [RHCC] 15.4 µM): 1420260; Fluorescence intensity at 350 nm (λexc = 275 nm) ([2]; [RHCC] 30.75 µM): 1845910; Fluorescence intensity at 350 nm (λexc = 275 nm) ([2]; [RHCC] 61.5 µM): 1873130
3 | c1ccc2cc3ccccc3cc2c1 [Anthracene, anthracene] | – | 8.7 ± 1.5 | -6.86 | – | – | – | –
4 | c1ccc2cc3c(ccc4ccccc43)cc2c1 [benz(a)anthracene] | – | – | – | – | uptake | did not exhibit any concentration dependent fluorescence changes | –
5 | c1cc2c3c(cccc3c1)CC2 [Acenaphthene, acenaphthene] | ca. 1 min | 8.9 ± 1.8 | -6.84 | – | – | – | –
6 | c1ccc2c(c1)ccc1ccccc12 [phenanthrene] | – | – | – | −16.2 ± 2.5 | uptake | did not exhibit any concentration dependent fluorescence changes | –
7 | c1ccc2c(c1)Cc1ccccc1-2 [Fluorene, fluorene] | – | 5.4 ± 1.6 | -7.15 | – | – | – | –
8 | c1ccc2c(c1)-c1cccc3cccc-2c13 [fluoranthene] | – | – | – | – | uptake | did not exhibit any concentration dependent fluorescence changes | –
9 | c1ccc2c(c1)ccc1c3ccccc3ccc21 [Chrysene, chrysene] | – | 27 ± 5.6 | -6.19 | – | – | – | –
10 | c1cc2ccc3cccc4ccc(c1)c2c34 [Pyrene, pyrene] | – | 30 ± 2 | -6.12 | −18.91 ± 2.5 | – | – | average uptake rate ([1]; 10 °C): 1.59 nmol/hr∙mol RHCC-NT; time for complete uptake by RHCC-NT ([1]; 10 °C, emission at 384 nm): around 80 hrs; Py-value (ratio of fluorescence emission intensities of Band I/III) ([1]; RHCC-NT:Pyrene time = 0, 10 °C): 1.7288; Py-value (ratio of fluorescence emission intensities of Band I/III) ([1]; RHCC-NT:Pyrene time = 75 hrs, 10 °C): 0.6395
